# Key:
# [1] = tested on: Bennett neuropathic pain model; test: Bennett (chronic constriction injury) neuropathic pain model, cold plate / cold allodynia test; type: in vivo, rat; settings: for latency time to removal of the affected paw from a cold plate, difference from vehicle control: dosed orally at 100 mg/kg, measured one hour later, cold allodynia test, ANOVA p<0.05 (FIG. 1)
# Procedure: FIG. 1—Efficacy of PPARγ agonists Muraglitizar and Tesaglitizar in Bennett animal model for neuropathic pain. PPAR agonist compounds and positive control carbamazepine were dosed orally at 100 mg/kg, and pain behavior was measured one hour later with the cold allodynia test, as the latency time to removal of the affected paw from a cold plate. Statistical analysis of raw data was performed by analysis of variance (ANOVA), with significance threshold set at p<0.05. Analgesic activity was determined as a statistically significant increase in latency time to paw withdrawal in treated animals as compared to vehicle-treated animals. Comparisons for statistically significant differences in latency times were made between PPAR agonist compound-treated animals and vehicle controls, between carbamazepine-treated animals and vehicle controls, and between PPAR agonist compound-treated animals and carbamazepine-treated animals from the same experiment. All statistically significant differences between compared groups are indicated by the brackets, with *=p<0.05, and **=p<0.001.
# FIG. 3—Effect of carbamazepine (+ control) and 3-(2,4-dichlorobenzyl)-2-methyl-N-(pentylsulfonyl)-3H-benzimidazole-5-carboxamide (“Atx” in Figure) on the latency to lift paw from the cold plate 60 min following compound injection, in rats with the Bennett model of neuropathic pain. Data represent mean±SEM. Statistical analysis of data as for FIG. 1; *=p<0.05.
# These models are based on three surgical procedures: (i) the spinal nerve ligation (SNL) [Kim, S, and J. Chung, An experimental model for peripheral neuropathy produced by segmental spinal nerve ligation in the rat. Pain, 1992. 50: p. 355-363]; (ii) the partial sciatic nerve lesion (Seltzer) [Seltzer, Z., R. Dubner, and Y. Shir, A novel behavioral model of neuropathic pain disorders produced in rats by partial sciatic nerve injury. Pain, 1990. 43: p. 205-218]; (iii) and the chronic constriction injury [Bennett, G. and Y. Xie, A peripheral mononeuropathy in rat that produces disorders of pain sensation like those seen in man. Pain, 1988. 33: p. 87-107]. The Bennett model was used, as described below.
# Young adult, male Sprague Dawley rats (200-250 g) from Harlan were used. Upon receipt, animals were assigned unique identification numbers (tail marked) and housed 2-3 per cage in suspended polycarbonate rat cages with filter paper covering mesh shelf. Rats were acclimated for up to 7 days prior to surgery. […]
# The apparatus consists of a cold plate (Ugo Basile Hot/Cold Plate) measuring 25 (w)×37 (d)×16 (h) cm with a 10 cm thick aluminum circular plate. […] Baseline responses were measured on the day prior to drug administration. Each animal was tested by placing it on the cold plate (set to 4 C) and the latency of paw withdrawal was recorded. […]
# type 2 diabetes = settings: Phase II; quoted from Meinke et al., Annual Reports in Medicinal Chemistry (2006); cited from earlier work
# neurogenic pain model = settings: reported in WO2006085686; cited from earlier work
smiles,measurement,setting,value
"CCCCCS(=O)(=O)NC(=O)c1ccc2nc(C)n(Cc3ccc(Cl)cc3Cl)c2c1 [Atx, 3-(2,4-dichlorobenzyl)-2-methyl-N-(pentylsulfonyl)-3H-benzimidazole-5-carboxamide]","latency to lift paw from the cold plate, analgesic activity compared to carbamazepine (+ control)","[1]; 60 min following compound injection, rats with the Bennett model (FIG. 3)",not significantly different from carbamazepine
same,"latency to lift paw from the cold plate, analgesic activity compared to vehicle","[1]; 60 min following compound injection, rats with the Bennett model, p<0.05 (FIG. 3)",analgesic activity which is significantly greater than vehicle alone
same,advantage for type 2 diabetes in clinical trials,type 2 diabetes,no advantage [for type 2 diabetes] was demonstrated in clinical trials
CCO[C@@H](Cc1ccc(OCCc2ccc(OS(C)(=O)=O)cc2)cc1)C(=O)O [Tesaglitazar],"latency time to removal of the affected paw from a cold plate, difference from vehicle control",[1],neither of Muraglitazar or Tesaglitazar showed any statistically significant difference from a vehicle control
"O=C(Nc1ccccc1)c1cc([N+](=O)[O-])ccc1Cl [GW9662, 2-chloro-5-nitro-N-phenylbenzamide]",activity in a neurogenic pain model,neurogenic pain model,demonstrates activity in a neurogenic pain model
COc1ccc(OC(=O)N(CC(=O)O)Cc2ccc(OCCc3nc(-c4ccccc4)oc3C)cc2)cc1 [Muraglitazar],"latency time to removal of the affected paw from a cold plate, difference from vehicle control",[1],neither of Muraglitazar or Tesaglitazar showed any statistically significant difference from a vehicle control
